# Laboratory results from US20190351012A1, “TARGETING OF INTERFERON-STIMULATED GENE EXPRESSION TO TREAT INTERFERONOPATHIES” (New York University, priority 2018, published 2019).
# Entries after “also recorded” stand apart in the source; their conditions may differ.
# How the values were obtained:
# BRD4 = experiment: Nuclear BRD4 distribution (soluble versus chromatin-bound) by differential salt extraction and western blot in HeLa cells; assay type: cell-based, human; details: western blot
# Protocol: (§1) FIG. 5. BRD4 is required for ISG transcription. (A) HeLa cells were either left untreated or treated with IFN-α for 1 h in presence or absence of JQ-1 or HMBA. Using primers spanning intron-exon junctions, nuclear pre-mRNA for ISG54 and γ-actin were quantified by real-time RT-PCR and normalized to GAPDH mRNA. (B) Control and BRD4 KD cells were either left untreated or treated with IFN-α. ISG56 and BRD4 mRNA were quantified using real-time RT-PCR and normalized to GAPDH mRNA abundance. (C) HEK293T cells were transfected with pcDNA3 (Ctl) or Brd4 expression constructs along with a luciferase reporter driven by the ISG54 promoter. 24 h after transfection, cells were either left untreated or treated with IFN-α in the absence or presence of TSA before being assayed for luciferase activity (left panel). HEK293T cells were transfected with pcDNA3 (Ctl) or Brd4 expression constructs along with a luciferase reporter driven by the constitutive RSV promoter and assayed for luciferase activity after 36 h (right panel). (D) Hela cells were either left untreated or treated with IFN-α for 2 h in presence or absence of TSA or Anacardic acid (AA). Nuclear proteins were extracted as a soluble fraction and a chromatin bound fraction and analyzed by western blotting using anti-BRD4, H4-AcK5 and actin antibodies. […] (F) ChIP assays were performed with antibodies against BRD4 and recovered ISG56, Mx1 and IRF9 TSS spanning sequences were quantified by real-time PCR, normalized to input, and represented as fold enrichment over the untreated sample.
# BRD4 is recruited to active promoters along with polymerase, and it associates with elongating polymerase to affect transcriptional elongation. […] Cells were treated with IFN in the presence or absence of TSA, and nuclear BRD4 was quantified in soluble versus chromatin-bound fractions by differential salt extraction (FIG. 5D). Most BRD4 was detected in the soluble nucleoplasm fraction in untreated or IFN-treated cells (FIG. 5D, compare lanes 1 and 2 with 5 and 6). […]
# Nuclear extracts were prepared and analyzed by immunoblotting as follows. […]
# [1] = system: BRD4 at ISG56, Mx1 and IRF9 TSS; experiment: ChIP-qPCR for BRD4 at ISG promoters in HeLa cells; assay type: cell-based, human; details: 1 h IFN stimulation
# Protocol: as §1, with “HEK293T cells were transfected with pcDNA3 (Ctl) or Brd4 expression constructs along with a luciferase reporter driven by the constitutive RSV promoter and assayed for luciferase activity after 36 h (right panel). (D) Hela cells were either left untreated or treated with IFN-α for 2 h in presence or absence of TSA or Anacardic acid (AA).” left out, “sample. […]” for “sample.”
# Chromatin immunoprecipitation was performed as follows. […] Immunoprecipitated DNA sequences were recovered by alcohol precipitation and quantified by real-time PCR compared with input genomic DNA. […]
compound,measurement,setting,value
"CC(/C=C/C(=O)NO)=C\[C@@H](C)C(=O)c1ccc(N(C)C)cc1 [TSA, Trichostatin A]",soluble nuclear BRD4,BRD4; IFN-α 2 h,undetectable; also recorded: depletion
same,histone acetylation (acetylated H4K5),BRD4,large increase
same,IFN-induced BRD4 recruitment to ISG promoters,[1],abrogated
